Usually IC50 stands for the concentration at which inhibition is half-maximal. Read a high IC50 as lower potency.

Each structure is given as a SMILES string.

This note sets out measurements from patent US9115127B2 (AMGEN INC., priority 2010, dated 2015).

T1 sequence (Q9UM73 1058-1620): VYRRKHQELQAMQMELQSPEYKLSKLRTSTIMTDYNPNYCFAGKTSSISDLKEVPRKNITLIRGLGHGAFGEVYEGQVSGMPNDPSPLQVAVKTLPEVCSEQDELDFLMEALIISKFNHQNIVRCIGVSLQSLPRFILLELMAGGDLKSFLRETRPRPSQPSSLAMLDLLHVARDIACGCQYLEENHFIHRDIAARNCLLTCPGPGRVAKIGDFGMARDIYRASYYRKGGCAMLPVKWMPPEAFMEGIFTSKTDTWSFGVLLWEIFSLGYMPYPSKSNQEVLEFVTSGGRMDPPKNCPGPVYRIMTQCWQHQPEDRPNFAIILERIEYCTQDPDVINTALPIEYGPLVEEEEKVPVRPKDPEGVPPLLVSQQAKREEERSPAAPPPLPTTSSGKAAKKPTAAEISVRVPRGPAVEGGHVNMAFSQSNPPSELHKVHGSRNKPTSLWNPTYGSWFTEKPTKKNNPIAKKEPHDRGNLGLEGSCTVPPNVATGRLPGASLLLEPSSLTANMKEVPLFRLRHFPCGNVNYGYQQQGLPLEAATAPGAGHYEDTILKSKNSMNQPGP

This assay has as its target T1, wild-type human ALK (cytoplasmic domain, amino acids 1058-1620, N-terminal GST fusion) (Homo sapiens, UniProt Q9UM73).
T1 construct: The cytoplasmic domain (amino acids 1058-1620) of wild-type human ALK; GST (N); made in house; host or cells: SF9 insect cells
The assay can be described thus: ALK Inhibition in Enzyme Assay (Lance TR-FRET kinase assay). Format: biochemical. On the procedure: ALK Inhibition in Enzyme Assay
Kinase activity of the purified protein was assessed using a Lance® TR-FRET assay. […] The reaction was allowed to proceed for 90 minutes at room temperature and was then terminated with 20 mM EDTA in 50 mM Tris (pH 7.5), 100 mM NaCl, 0.05% BSA, and 0.1% Tween-20. Phosphorylation of the peptide substrate was detected using the Lance® detection reagents streptavidin-allophycocyanin (SA-APC) and Eu-W1024 anti-phosphotyrosine antibody (PT66) from Perkin Elmer Life Sciences (Waltham, Mass.). The plates were read on a RUBY star plate reader (BMG LABTECH, Cary, N.C.) with an excitation wavelength of 320 nm.
A general note: In TR-FRET formats the signal depends on donor and acceptor labels being close together.
`O=C(/N=c1\[nH]c2ccc(CN3CCOCC3)cc2n1[C@H]1CC[C@@H](C(=O)NO)CC1)c1ccc(F)cc1` [Example 207, (E)-4-Fluoro-N-(1-(cis-4-(hydroxycarbamoyl)cyclohexyl)-6-(morpholinomethyl)-1H-benzo[d]imidazol-2(3H)-ylidene)benzamide] came in with an IC50 of 50 to 100 nM.
`O=C(/N=c1\[nH]c2ccc(CN3CCCCC3)cc2n1[C@H]1CC[C@@H](CO)CC1)c1ccc(F)cc1` [Example 37, (E)-4-Fluoro-N-(1-(cis-4-(hydroxymethyl)cyclohexyl)-6-(piperidin-1-ylmethyl)-1H-benzo[d]imidazol-2(3H)-ylidene)benzamide] returned a half-inhibitory concentration (IC50) of 100 to 1000 nM.
As for `C[C@@H]1CNCCN1C(=O)[C@H]1CC[C@@H](n2/c(=N/C(=O)c3ccc(C#N)cc3)[nH]c3cnc(OCCN4CCCCC4)cc32)CC1` [Example 58, (E)-4-Cyano-N-(1-(cis-4-((R)-2-methylpiperazine-1-carbonyl)cyclohexyl)-6-(2-(piperidin-1-yl)ethoxy)-1H-imidazo[4,5-c]pyridin-2(3H)-ylidene)benzamide], the figure is under 50 nM.
Under `CC(C)(C)NC(=O)[C@H]1CC[C@@H](n2c(NC(=O)c3ccccc3)nc3ccc(CN4CCCCC4)cc32)CC1` [Example 29, N-(1-(cis-4-(tert-Butylcarbamoyl)cyclohexyl)-6-(piperidin-1-ylmethyl)-1H-benzo[d]imidazol-2-yl)benzamide] stands under 50 nM; under `CC(C)NC(=O)[C@H]1CC[C@@H](n2/c(=N/C(=O)c3ccc(C#N)cc3)[nH]c3cnc(OCCN4CCC(C(C)(C)O)CC4)cc32)CC1` [Example 129, (E)-4-Cyano-N-(6-(2-(4-(2-hydroxypropan-2-yl)piperidin-1-yl)ethoxy)-1-(cis-4-(isopropylcarbamoyl)cyclohexyl)-1H-imidazo[4,5-c]pyridin-2(3H)-ylidene)benzamide], under 50 nM; under `CC(C)NC(=O)[C@H]1CC[C@@H](n2/c(=N/C(=O)c3ccc4cc[nH]c4c3)[nH]c3cnc(OCCN4CCCCC4)cc32)CC1` [Example 104, (E)-N-(1-(cis-4-(Isopropylcarbamoyl)cyclohexyl)-6-(2-(piperidin-1-yl)ethoxy)-1H-imidazo[4,5-c]pyridin-2(3H)-ylidene)-1H-indole-6-carboxamide], 100 to 1000 nM.
As for `CC(C)NC(=O)[C@H]1CC[C@@H](n2/c(=N/C(=O)c3cccc(S(C)(=O)=O)c3)[nH]c3cnc(OCCN4CCCCC4)cc32)CC1` [Example 93, (E)-N-(1-(cis-4-(Isopropylcarbamoyl)cyclohexyl)-6-(2-(piperidin-1-yl)ethoxy)-1H-imidazo[4,5-c]pyridin-2(3H)-ylidene)-3-(methylsulfonyl)benzamide], the figure is 1000 to 5000 nM; as for `CC(C)NC(=O)[C@]1(O)CC[C@H](n2/c(=N/C(=O)c3ccc(F)cc3)[nH]c3cnc(OCCN4CCCCC4)cc32)CC1` [Example 63, (E)-4-Fluoro-N-(1-(trans-4-hydroxy-4-(isopropylcarbamoyl)cyclohexyl)-6-(2-(piperidin-1-yl)ethoxy)-1H-imidazo[4,5-c]pyridin-2(3H)-ylidene)benzamide], 50 to 100 nM; as for `C=CCNS(=O)(=O)c1cc(C(=O)Nc2nc3ccc(CN4CCCCC4)cc3n2[C@H]2CC[C@@H](C(=O)O)CC2)ccc1F` [Example 34, cis-4-(2-(3-(N-Allylsulfamoyl)-4-fluorobenzamido)-6-(piperidin-1-ylmethyl)-1H-benzo[d]imidazol-1-yl)cyclohexanecarboxylic acid], 100 to 1000 nM.
`NC(=O)[C@]1(c2cccc(Br)c2)C[C@@H](n2/c(=N/C(=O)c3ccc(F)cc3)[nH]c3cnc(OCCN4CCCCC4)cc32)C1` [Example 251, (E)-N-(1-(trans-3-(3-Bromophenyl)-3-carbamoylcyclobutyl)-6-(2-(piperidin-1-yl)ethoxy)-1H-imidazo[4,5-c]pyridin-2(3H)-ylidene)-4-fluorobenzamide]: the half-maximal inhibitory concentration (IC50) fell in the range of 50 to 100 nM.
Compound `CNC(=O)[C@H]1CC[C@H](n2/c(=N/C(=O)c3ccc(F)cc3)[nH]c3cnc(OCCN4CCCCC4)cc32)CC1` [Example 246, (E)-4-Fluoro-N-(1-(trans-4-(methylcarbamoyl)cyclohexyl)-6-(2-(piperidin-1-yl)ethoxy)-1H-imidazo[4,5-c]pyridin-2(3H)-ylidene)benzamide] had a concentration for half-maximal inhibition (IC50) of 100 to 1000 nM.
As for `CC(C)NC(=O)[C@H]1CC[C@@H](n2/c(=N/C(=O)c3ccc(F)c(F)c3)[nH]c3cnc(OCCN4CCCCC4)cc32)CC1` [Example 107, (E)-3,4-Difluoro-N-(1-(cis-4-(isopropylcarbamoyl)cyclohexyl)-6-(2-(piperidin-1-yl)ethoxy)-1H-imidazo[4,5-c]pyridin-2(3H)-ylidene)benzamide], the figure is under 50 nM.
In the case of `CC(C)C(=O)N[C@H]1CC[C@@H](n2/c(=N/C(=O)c3ccc(F)cc3)[nH]c3ccc(CN4CCC(C(C)(C)O)CC4)cc32)CC1` [Example 227, (E)-4-Fluoro-N-(6-((4-(2-hydroxypropan-2-yl)piperidin-1-yl)methyl)-1-(cis-4-isobutyramidocyclohexyl)-1H-benzo[d]imidazol-2(3H)-ylidene)benzamide], the half-inhibitory concentration (IC50) lay in the range of 50 to 100 nM.
Under `C=CCNS(=O)(=O)c1cccc(C(=O)/N=c2\[nH]c3cnc(OCCN4CCCCC4)cc3n2[C@H]2CC[C@@H](C(=O)NC(C)C)CC2)c1` [Example 99, (E)-3-(N-Allylsulfamoyl)-N-(1-(cis-4-(isopropylcarbamoyl)cyclohexyl)-6-(2-(piperidin-1-yl)ethoxy)-1H-imidazo[4,5-c]pyridin-2(3H)-ylidene)benzamide] stands 100 to 1000 nM; under `CCOC(=O)[C@H]1CC[C@@H](n2/c(=N/C(=O)c3cccc(F)c3)[nH]c3cnc(OCCO)cc32)CC1` [Example 77, cis-Ethyl 4-((E)-2-(3-fluorobenzoylimino)-6-(2-hydroxyethoxy)-2,3-dihydro-1H-imidazo[4,5-c]pyridin-1-yl)cyclohexanecarboxylate], under 50 nM; under `CC(C)(O)C1CCN(Cc2ccc3[nH]/c(=N\C(=O)c4ccc(F)cc4)n([C@H]4CC[C@@H](C(=O)O)CC4)c3c2)CC1` [Example 210, cis-4-((E)-2-(4-Fluorobenzoylimino)-6-((4-(2-hydroxypropan-2-yl)piperidin-1-yl)methyl)-2,3-dihydro-1H-benzo[d]imidazol-1-yl)cyclohexanecarboxylic acid], 100 to 1000 nM.
As to `CCNC(=O)[C@H]1CC[C@@H](n2/c(=N/C(=O)c3ccc(F)cc3)[nH]c3ccc(CN4CCCCC4)cc32)CC1` [Example 11, (E)-N-(1-(cis-4-(Ethylcarbamoyl)cyclohexyl)-6-(piperidin-1-ylmethyl)-1H-benzo[d]imidazol-2(3H)-ylidene)-4-fluorobenzamide], the half-maximal inhibitory concentration (IC50) was under 50 nM.
On to `CC(C)CCNC(=O)[C@H]1CC[C@@H](n2/c(=N/C(=O)c3ccc(F)cc3)[nH]c3ccc(CN4CCCCC4)cc32)CC1` [Example 40, (E)-4-Fluoro-N-(1-(cis-4-(isopentylcarbamoyl)cyclohexyl)-6-(piperidin-1-ylmethyl)-1H-benzo[d]imidazol-2(3H)-ylidene)benzamide], for which the half-inhibitory concentration (IC50) lay within 50 to 100 nM.
Under `CC(C)NC(=O)[C@H]1CC[C@@H](n2/c(=N/C(=O)c3ccc(F)cc3)[nH]c3ccc(CN4CCN(CC(C)(C)O)CC4)cc32)CC1` [Example 185, (E)-4-Fluoro-N-(6-((4-(2-hydroxy-2-methylpropyl)piperazin-1-yl)methyl)-1-(cis-4-(isopropylcarbamoyl)cyclohexyl)-1H-benzo[d]imidazol-2(3H)-ylidene)benzamide] stands under 50 nM.
